Laboratory results as given in patent US20240398781A1, “SPIROCYCLIC CYCLIC MODULATORS OF CHOLESTEROL BIOSYNTHESIS AND THEIR USE FOR PROMOTING REMYELINATION” (GENENTECH, INC., priority 2021, published 2024).

Assays:
[1] = biological target: human emopamil binding protein and human 7-dehydrocholesterol reductase co-expressing cells (hEBP-DHCR7 membrane) (Homo sapiens (Human), UniProt Q15125); assay: Radioligand filter binding assay on hEBP-DHCR7 membrane; settings: [3H]-(S)-6-(2-Methyl-3-(6-(trifluoromethyl)pyridin-3-yl)propyl)-2-thia-6-azaspiro[3.4]octane 2,2-dioxide radioligand, HEK293 membrane co-expressing hEBP and hDHCR7
Summary of the method: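 HEK293 cells transiently co-expressing human EBP and DHCR7 supplied whole-cell membranes (10 μg/well), incubated 3 h at 22 °C with [3H]-labelled spiro-octane dioxide ligand (added at 25 nM) and compound (0.06-5000 nM final, 8 doses, n=2). Bound ligand was collected on PEI-treated GF/B filters and counted by scintillation. IC50 was Hill-fitted from % inhibition and reported as Ki.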

EpiSC-derived OPCs = assay: In vitro phenotypic screening of OPCs (MBP staining, high-content imaging); assay type: cell-based, mouse; settings: Mus musculus, 72 h, percentage of MBP+ oligodendrocytes, 3 days, 0.5 nM to 1000 nM; read-out: OPC EC50
Experimental: To assess effects of treatments on OPCs, all treatments were assayed in two or more independent platings of epiblast stem cell-derived OPCs (EpiSC). EpiSC-derived OPCs were obtained using in vitro differentiation protocols and culture conditions described previously (Najm et al, 2011, Nature Methods). OPCs were expanded and frozen down in aliquots. OPCs were thawed into growth conditions for at least one passage before use in further assays.
EpiSC-derived OPCs were grown and expanded in poly-L-ornithine (PO) and laminin-coated flasks in N2B27 media (DMEM/F12 (Gibco), N2-MAX (R&D Systems), B-27 (ThermoFisher), and GlutaMax (Gibco)) supplemented with FGF2 ([…], R&D systems, 233-FB-025) and PDGF-AA ([…], R&D systems, 233-AA-050) before harvesting for experiments. The cells were seeded onto poly-L-ornithine or poly-D-lysine coated CellCarrier Ultra plates (PerkinElmer) coated with laminin (Sigma, L2020) at a density of 150,000/cm^2 in N2B27 media without growth factors. For dose-response testing, a 1000× compound stock in dimethyl sulphoxide (DMSO) was added to assay plates, resulting in 8-point dose curves with final concentrations between 1000 nM and 0.5 nM. Positive controls and DMSO vehicle controls were included in each assay plate. Cells were incubated under standard conditions (37° C., 5% CO2) for 3 days and fixed with 4% paraformaldehyde (PFA) in phosphate buffered saline (PBS) for 20 min. Fixed plates were washed with PBS, permeabilized with 0.1% Triton X-100, and blocked with 10% donkey serum (v/v) in PBS for 40 min. Then, cells were labelled with MBP antibodies (Abcam, ab7349; 1:200) for 2 h at room temperature, washed with PBS, and stained with Alexa Fluor conjugated secondary antibodies (1:500) for 45 min. Nuclei were visualized by DAPI staining (Sigma; 1 μg/ml), followed by further PBS washes.
Cells and cell culture plates were imaged on the Operetta High Content Imaging and Analysis system (PerkinElmer). Analysis (PerkinElmer Harmony and Columbus software) began by identifying intact nuclei stained by DAPI. The peri-nuclear region of each cell was then cross-referenced with the mature myelin protein (MBP) stain to identify oligodendrocyte nuclei, and from this the percentage of oligodendrocytes was calculated. EC50 values were calculated using The Levenberg-Marquardt algorithm to fit a Hill equation to dose-response data (0.5 nM to 1000 nM).

[2] = tested on: EBP (zymostenol accumulation in EpiSC-derived OPCs); assay: GC/MS-based sterol profiling, zymostenol accumulation in OPCs; assay type: cell-based, mouse; settings: Mus musculus, 24 h, EpiSC-derived OPCs, 24 hr treatment, 8 doses from 0.15 nM to 333 nM; read-out: Zymostenol GCMS EC50
Summary of the method: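 EpiSC-derived OPCs (100,000/well) were treated 24 h in N2B27 without growth factors. Sterols were TMS-derivatized and analysed by GC/MS full-scan EI, quantified against cholesterol-d7. Zymostenol was normalized to the level after 24 h with 100 nM positive control reference.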

Sequence of human emopamil binding protein and human 7-dehydrocholesterol reductase co-expressing cells (hEBP-DHCR7 membrane) (Q15125 whole entry): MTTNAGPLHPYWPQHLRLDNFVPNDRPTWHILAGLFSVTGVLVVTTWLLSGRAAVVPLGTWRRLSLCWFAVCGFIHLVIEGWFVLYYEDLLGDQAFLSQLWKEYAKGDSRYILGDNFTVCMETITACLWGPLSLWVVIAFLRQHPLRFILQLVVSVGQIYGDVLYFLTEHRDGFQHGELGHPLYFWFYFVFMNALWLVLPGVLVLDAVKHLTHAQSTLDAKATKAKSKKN

| SMILES | Ki [1] [nM] | EC50 (EpiSC-derived OPCs) [nM] | EC50 [2] [nM] |
| --- | --- | --- | --- |
| O=S1(=O)CC2(CCN([C@H]3CC[C@H](c4ncc(C(F)(F)F)cc4F)CC3)C2)C1 [Compound 59, 6-((1r,4r)-4-(3-Fluoro-5-(trifluoromethyl)pyridin-2-yl)cyclohexyl)-2-thia-6-azaspiro[3.4]octane 2,2-dioxide] | 72 | 82 | 13 |
| O=S1(=O)CC2(CCN([C@H]3CC[C@@H](c4ccc(F)c(F)c4)CC3)CC2)C1 [Compound 77B, 7-((1s,4s)-4-(3,4-difluorophenyl)cyclohexyl)-2-thia-7-azaspiro[3.5]nonane 2,2-dioxide] | 8 | 15 | 5 |
| CC(C)n1nc(C(F)(F)F)cc1[C@H]1CCC[C@@H](N2CCC3(CC2)CS(=O)(=O)C3)C1 (single isomer, unassigned) [78C*] | 790 | 273 | 28 |
| O=S1(=O)CC2(CCN([C@H]3CCCN(c4ccc(C(F)(F)F)cc4)C3)CC2)C1 (single isomer, unassigned) [55B*] | 14 | 330 | 25 |
| CC(C)n1nc(C(F)(F)F)cc1[C@@H]1CCC[C@H](N2CCC3(C2)CS(=O)(=O)C3)C1 (single isomer, unassigned) [61C*] | 31 | 53 | 7.5 |
| O=S1(=O)CC2(CCN([C@H]3CC[C@@H](c4ncc(C(F)(F)F)cc4F)CC3)CC2)C1 [Compound 80B, 7-((1s,4s)-4-(3-fluoro-5-(trifluoromethyl)pyridin-2-yl)cyclohexyl)-2-thia-7-azaspiro[3.5]nonane 2,2-dioxide] | 28 | 38 | 8 |
| O=S1(=O)CC2(CCN([C@@H]3CCC[C@@H](c4ccc(C(F)(F)F)nc4)C3)C2)C1 (single isomer, unassigned) [54B*] | 100 | 1000 | 240 |
| CC(C)n1nc(-c2ccc(C(F)(F)F)cc2)nc1[C@@H]1CC[C@@H](N2CCC3(C2)CS(=O)(=O)C3)C1 (single isomer, unassigned) [53D*] | 96 | 3.3 | 1 |
| O=S1(=O)CC2(CCN([C@H]3CC[C@@H](c4nc(-c5cccc(C(F)(F)F)n5)nn4C4CC4)C3)CC2)C1 (single isomer, unassigned) [42A*] | 570 | 93 | 43 |
| O=S1(=O)CC[C@@]2(CCCN([C@H]3CC[C@@H](c4cc(C(F)(F)F)nn4C4CC4)CC3)C2)C1 (single isomer, unassigned) [69A*] | 24 | 7.5 | 2.1 |
| CC(C)n1nc(-c2cccc(C(F)(F)F)n2)cc1[C@@H]1CC[C@H](N2CCC3(CC2)CS(=O)(=O)C3)C1 (single isomer, unassigned) [46B*] | 35 | 4.9 | 2.7 |
| O=S1(=O)CC2(CCN([C@H]3CC[C@H](c4cccc(C(F)(F)F)n4)CC3)C2)C1 [Compound 62B, 6-((1r,4r)-4-(6-(trifluoromethyl)pyridin-2-yl)cyclohexyl)-2-thia-6-azaspiro[3.4]octane 2,2-dioxide] | 37 | 13 | 6.4 |
| O=S1(=O)CC2(CCN([C@H]3CC[C@H](c4ccc(F)c(F)c4)CC3)CC2)C1 [Compound 77A, 7-((1r,4r)-4-(3,4-Difluorophenyl)cyclohexyl)-2-thia-7-azaspiro[3.5]nonane 2,2-dioxide] | 33 | 13 | 5.7 |
| CCn1nc(-c2ccc(C(F)(F)F)nc2)nc1[C@H]1CC[C@H](N2CCC3(CC2)CS(=O)(=O)C3)CC1 (stereo in doubt) [43A*, (trans)-7-(-4-(1-Ethyl-3-(6-(trifluoromethyl)pyridin-3-yl)-1H-1,2,4-triazol-5-yl)cyclohexyl)-2-thia-7-azaspiro[3.5]nonane 2,2-dioxide] | 125 | 27 | 8 |
| O=S1(=O)CC2(CCN([C@H]3CCC[C@H](c4ccc(C(F)(F)F)nc4)C3)C2)C1 (single isomer, unassigned) [54D*] | 68 | 35 | 13 |
| CC(C)n1nc(-c2ccc(C(F)(F)F)cc2)nc1[C@H]1CCC(N2CCC3(CC2)CS(=O)(=O)C3)C1 (stereo in doubt) [Compound 58B, 7-((1S,3S)-3-(1-isopropyl-3-(4-(trifluoromethyl)phenyl)-1H-1,2,4-triazol-5-yl)cyclopentyl)-2-thia-7-azaspiro[3.5]nonane 2,2-dioxide] | 21 | 3.4 | 2.3 |
| O=S1(=O)CC2(CCN([C@@H]3CC[C@H](c4ccc(C(F)(F)F)cc4)C3)C2)C1 [Compound 1C, 6-((1R,3S)-3-(4-(trifluoromethyl)phenyl)cyclopentyl)-2-thia-6-azaspiro[3.4]octane 2,2-dioxide] | 11 | 1.8 | 1.4 |
| O=S1(=O)CC2(CCN([C@H]3CC[C@H](c4cc(C(F)(F)F)ncn4)CC3)C2)C1 [Compound 83, 6-((1r,4r)-4-(6-(Trifluoromethyl)pyrimidin-4-yl)cyclohexyl)-2-thia-6-azaspiro[3.4]octane 2,2-dioxide] | 120 | 280 | 34 |
| O=S1(=O)CC2(CCN([C@H]3CC[C@@H](c4ccc(C(F)(F)F)cc4)C3)C2)C1 [Compound 1A, 6-((1S,3R)-3-(4-(trifluoromethyl)phenyl)cyclopentyl)-2-thia-6-azaspiro[3.4]octane 2,2-dioxide] | 14.8 | 17 | 4.9 |
| CC(C)c1nc(C(F)(F)F)ccc1[C@H]1CC[C@H](N2CCC3(C2)CS(=O)(=O)C3)CC1 [Compound 65A, 6-((1r,4r)-4-(2-isopropyl-6-(trifluoromethyl)pyridin-3-yl)cyclohexyl)-2-thia-6-azaspiro[3.4]octane 2,2-dioxide] | 14 | 8.9 | 4.1 |
| CC(C)n1nc(-c2ccc(C(F)(F)F)cc2)nc1[C@H]1CCC(N2CCC3(CC2)CS(=O)(=O)C3)C1 (stereo in doubt) [Compound 58A, 7-((1R,3S)-3-(1-Isopropyl-3-(4-(trifluoromethyl)phenyl)-1H-1,2,4-triazol-5-yl)cyclopentyl)-2-thia-7-azaspiro[3.5]nonane 2,2-dioxide] | 22 | 7.3 | 4.4 |
| O=S1(=O)CC2(CCN([C@H]3CC[C@H](c4ccnc(C(F)(F)F)n4)CC3)C2)C1 [Compound 88, 6-((1r,4r)-4-(2-(Trifluoromethyl)pyrimidin-4-yl)cyclohexyl)-2-thia-6-azaspiro[3.4]octane 2,2-dioxide] | 73 | 110 | 16 |
| O=S1(=O)CC2(CCN([C@@H]3CC[C@H](c4ccc(C(F)(F)F)nc4)C3)CC2)C1 (single isomer, unassigned) [57C*] | 120 | 53 | 16 |
| CC(C)(C)n1nc(C(F)(F)F)cc1[C@H]1CC[C@@H](N2CCC3(CC2)CS(=O)(=O)C3)CC1 [Compound 85B, 7-((1s,4s)-4-(1-(tert-butyl)-3-(trifluoromethyl)-1H-pyrazol-5-yl)cyclohexyl)-2-thia-7-azaspiro[3.5]nonane 2,2-dioxide] | 300 | 48 | 17 |
| O=S1(=O)CC2(CCN([C@H]3CC[C@H](c4ccc(C(F)(F)F)nc4)C3)CC2)C1 (single isomer, unassigned) [57D*] | 150 | 130 | 18 |
